In PMC6131351, “Pharmacological difference between degrader and inhibitor against oncogenic BCR-ABL kinase” (Scientific Reports, 2018):

What was measured:
[1] = target: T1, cIAP1 (BIR3) (Homo sapiens, UniProt Q13490); assay: TR-FRET IAP/Smac peptide interaction assay, cIAP1; details: FITC-Smac probe, read-out: Binding affinity IC50 cIAP1
T1 construct: human cIAP1 (BIR3, Leu250-Gly350); made in house; host or cells: E. coli
Method: The TR-FRET assay was carried out using 384-well white flat-bottom plates (Greiner Bio-One) and the signal was measured using an EnVision Multilabel Plate Reader (PerkinElmer, Waltham, MA, USA). The solution in each well was excited with a laser (λ = 337 nm) reflected by a dichroic mirror (D400/D505 (Perkin Elmer) and fluorescence from terbium (Tb) and BODIPY or FITC was detected through two emission filters (CFP 486 (Perkin Elmer) for Tb and Emission 515 (Perkin Elmer) for BODIPY and FITC). The assay buffer used in this study was composed of 50 mM HEPES (pH 7.2–7.5), 10 mM MgCl2, 1 mM EGTA, 0.1 mM DTT and 0.01% (v/v) Brij^(R) 35. All assays were carried out at room temperature in triplicate or quadruplicate formats.
The half maximal inhibitory concentration (IC50) of test compounds was calculated by fitting the data with the logistic equation using GraphPad Prism 5 (GraphPad Software, Inc., La Jolla, CA, USA) or XLfit (IDBS, Guildford, UK).
His-IAP proteins (XIAP, cIAP1 or cIAP2), FITC-Smac, Tb-SA and the biotinylated anti-His antibody (Life Technologies) were mixed in the assay buffer and incubated for over 1 h at room temperature before addition to the assay plate. […] After 1 h incubation at room temperature, the TR-FRET signal was measured using the EnVision Multilabel Plate Reader. […]

[2] = system: K562 cells; assay: WST cell growth inhibition, K562; type: cell-based, Human; details: 48 h, WST assay; for IC50: Homo sapiens, means ± SD (n = 3)
Method: Human CML (K562 and KU812 cells), acute T-lymphoblast leukemia (MOLT-4 cell), and T cell leukemia (Jurkat cell) were cultured in Roswell Park Memorial Institute-1640 medium (Sigma-Aldrich, St. Louis, MO, USA) containing 10% fetal bovine serum (Thermo Fisher Scientific, Waltham, MA, USA) and 50 μg/ml kanamycin (Sigma-Aldrich). KU812 cells were obtained from Japanese Collection of Research Bioresources (JCRB, Osaka, Japan) Cell Bank (JCRB0104)[58].
Cell viability was determined using water-soluble tetrazolium WST-8 (4-[3-(2-methoxy-4-nitrophenyl)-2-(4-nitrophenyl)-2H-5-tetrazolio]-1,3-benzene disulfonate) for the spectrophotometric assay and conducted according to the manufacturer’s instructions (Dojindo, Tokyo, Japan). Cells were seeded at a concentration of 5 × 10^3 cells per well in a 96-well culture plate, and treated with the indicated compounds for 48 h. The WST-8 reagent was added, and the cells were incubated for 0.5 h at 37 °C in a humidified atmosphere of 5% CO2. The absorbance at 450 nm of the medium was measured using the EnVision Multilabel Plate Reader.

[3] = target: T2, BCR-ABL protein (Homo sapiens, UniProt P00519+P11274); assay: Washout experiment, BCR-ABL protein level by western blot in K562 cells; type: cell-based; details: K562, 50 times IC50 for 12 h, BCR-ABL/β-tubulin
T2 construct: examined for their activity to degrade BCR-ABL in K562 cells for 6 h; BCR (fusion partner, P11274, N-terminal part); endogenous in cells; host or cells: K562
Method: (§1) Cells were collected and lysed in a lysis buffer (0.5% Triton X-100, 0.01 M Tris-HCl (pH 7.5), 0.15 M NaCl, Complete Mini protease inhibitor cocktail (Roche Applied Science, Indianapolis, IL, USA) and PhosStop phosphatase inhibitor cocktail (Roche Applied Science)). Protein concentrations were measured by the BCA method (Thermo Fisher Scientific) and an equal amount of protein lysate was separated by SDS-PAGE, transferred to polyvinylidene difluoride membranes (Merck Millipore) and analyzed by western blot using an appropriate antibody. The immunoreactive proteins were visualized using Clarity Western ECL substrate (Bio-Rad, Hercules, CA, USA) and their light emission was quantified with a LAS-3000 lumino-image analyzer (Fuji, Tokyo, Japan).
(§2) Cells were seeded at a concentration of 2 × 10^6 cells per 10-cm tissue culture dish and treated with the indicated compounds for the indicated times. Then, the cells were washed three times to remove the compounds, and incubated in drug-free medium for the indicated times.

[4] = system: K562 cells; assay: Washout experiment, cell counting of K562 cells; type: cell-based, Human; details: washed; for growth of K562 cells after drug removal: 25 or 50 times IC50 for 12 h, drug-free medium for 6 d
Method: as §2

[5] = system: caspase 3 activation and PARP cleavage; assay: Caspase activation and PARP cleavage after drug removal in K562 cells; type: cell-based, Human; details: K562, 50 times IC50 for 12 h, drug removal for 24 h
Method: as §1, with “Japan). The following antibodies were used: anti-cAbl rabbit polyclonal antibody (pAb) (#2862), anti-XIAP rabbit pAb (#2042), anti-phospho-cAbl rabbit pAb (#3009), anti-STAT5 rabbit pAb (#9363), anti-phospho-STAT5 rabbit pAb (#9359), anti-CrkL mouse monoclonal antibody (mAb) (#3182) and anti-phospho-CrkL rabbit pAb (#3181), anti-PARP rabbit pAb (#9532), and anti-cleaved Caspase 3 rabbit pAb (#9664) (Cell Signaling Technology, Danvers, MA, USA); anti-β-tubulin (ab6046) rabbit pAb (Abcam, Cambridge, UK) and anti-GAPDH rabbit pAb (sc-25778 HRP) (Santa Cruz, Dallas, TX, USA); anti-cIAP1 goat pAb (AF8181) (R&D systems).” for “Japan).”
as §2

T2 sequence (P11274+P00519 fused): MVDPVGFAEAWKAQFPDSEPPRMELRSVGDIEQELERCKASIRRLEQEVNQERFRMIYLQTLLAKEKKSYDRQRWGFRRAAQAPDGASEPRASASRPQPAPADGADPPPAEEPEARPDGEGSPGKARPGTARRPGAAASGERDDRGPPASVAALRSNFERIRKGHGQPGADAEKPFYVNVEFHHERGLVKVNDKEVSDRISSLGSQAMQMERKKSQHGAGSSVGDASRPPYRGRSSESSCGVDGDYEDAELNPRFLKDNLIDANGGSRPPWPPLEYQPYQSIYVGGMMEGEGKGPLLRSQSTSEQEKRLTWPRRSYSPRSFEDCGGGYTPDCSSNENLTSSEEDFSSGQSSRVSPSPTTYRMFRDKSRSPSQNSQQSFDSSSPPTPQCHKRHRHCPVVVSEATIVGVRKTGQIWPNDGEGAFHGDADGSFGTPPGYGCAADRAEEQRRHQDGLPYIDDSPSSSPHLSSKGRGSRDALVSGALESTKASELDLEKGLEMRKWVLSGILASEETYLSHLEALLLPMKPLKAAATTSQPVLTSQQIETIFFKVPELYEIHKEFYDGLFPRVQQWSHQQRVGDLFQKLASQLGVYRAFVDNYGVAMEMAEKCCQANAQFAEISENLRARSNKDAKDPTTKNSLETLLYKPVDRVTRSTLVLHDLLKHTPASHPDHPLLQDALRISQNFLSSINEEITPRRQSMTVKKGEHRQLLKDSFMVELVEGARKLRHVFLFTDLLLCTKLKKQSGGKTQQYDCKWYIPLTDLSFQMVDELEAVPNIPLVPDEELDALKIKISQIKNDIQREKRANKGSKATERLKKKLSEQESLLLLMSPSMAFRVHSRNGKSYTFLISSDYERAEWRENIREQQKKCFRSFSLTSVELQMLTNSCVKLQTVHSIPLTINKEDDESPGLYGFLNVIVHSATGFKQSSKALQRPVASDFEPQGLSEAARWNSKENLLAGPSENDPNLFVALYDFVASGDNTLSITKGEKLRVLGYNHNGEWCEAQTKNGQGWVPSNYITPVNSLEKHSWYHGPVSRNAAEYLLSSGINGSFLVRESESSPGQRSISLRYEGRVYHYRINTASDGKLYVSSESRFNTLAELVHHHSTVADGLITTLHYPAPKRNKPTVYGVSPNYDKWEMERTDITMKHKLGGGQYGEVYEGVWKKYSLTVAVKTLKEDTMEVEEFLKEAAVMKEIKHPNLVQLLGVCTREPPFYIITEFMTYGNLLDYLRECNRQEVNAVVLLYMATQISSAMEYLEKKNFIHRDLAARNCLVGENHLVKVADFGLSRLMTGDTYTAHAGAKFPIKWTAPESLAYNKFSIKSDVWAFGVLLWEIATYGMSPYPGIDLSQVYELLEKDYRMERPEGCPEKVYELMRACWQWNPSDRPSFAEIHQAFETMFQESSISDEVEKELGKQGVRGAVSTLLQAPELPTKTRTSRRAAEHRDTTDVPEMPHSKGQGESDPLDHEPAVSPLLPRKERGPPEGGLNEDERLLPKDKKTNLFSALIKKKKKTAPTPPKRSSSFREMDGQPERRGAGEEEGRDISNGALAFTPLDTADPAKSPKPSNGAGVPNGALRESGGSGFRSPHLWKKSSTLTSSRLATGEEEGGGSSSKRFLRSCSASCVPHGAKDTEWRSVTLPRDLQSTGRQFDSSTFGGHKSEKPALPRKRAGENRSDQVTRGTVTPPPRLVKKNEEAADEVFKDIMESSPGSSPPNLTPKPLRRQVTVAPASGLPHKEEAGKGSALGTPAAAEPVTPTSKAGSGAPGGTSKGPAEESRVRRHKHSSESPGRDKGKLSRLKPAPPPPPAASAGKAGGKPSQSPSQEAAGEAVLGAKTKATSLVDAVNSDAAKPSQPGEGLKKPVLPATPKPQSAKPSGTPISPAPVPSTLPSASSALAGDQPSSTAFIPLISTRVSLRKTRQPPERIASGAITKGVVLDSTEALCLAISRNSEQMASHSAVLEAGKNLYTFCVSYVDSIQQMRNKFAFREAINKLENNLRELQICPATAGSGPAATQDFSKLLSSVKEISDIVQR
T1 sequence (Q13490 250-350): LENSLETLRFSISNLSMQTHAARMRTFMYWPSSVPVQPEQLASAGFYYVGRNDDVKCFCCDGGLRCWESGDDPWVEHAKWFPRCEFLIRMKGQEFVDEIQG

| IC50 [1] [nM] | IC50 [2] [nM] | BCR-ABL % of control ([3]; time after washout 0 h) | BCR-ABL % of control ([3]; time after washout 48 h) | BCR-ABL % of control ([3]; time after washout 72 h) | SMILES | suppression of K562 cell growth (comparison) [2] | growth of K562 cells after drug removal [4] | K562 cell number after drug removal ([4]; 50 times IC50 for 12 h, drug-free medium) | caspase 3 activation and PARP cleavage [5] |
| --- | --- | --- | --- | --- | --- | --- | --- | --- | --- |
| 10 | 8.6 | 32 % of control | 2 % of control | 2 % of control | CN[C@@H](C)C(=O)N[C@H](C(=O)N1CCC[C@H]1c1nc(C(=O)c2cccc(OCCOCCOCCOCC(=O)N3CCN(c4cc(Nc5ncc(C(=O)Nc6c(C)cccc6Cl)s5)nc(C)n4)CC3)c2)cs1)C1CCCCC1 [DAS-IAP] | more potent suppression of K562 cell growth than DAS-VHL | markedly inhibited the growth | decreased continuously | induced |
| > 1000 | 3.93 | 84 % of control | 80 % of control | 73 % of control | CN[C@@H](C)C(=O)N(C)[C@H](C(=O)N1CCC[C@H]1c1nc(C(=O)c2cccc(OCCOCCOCCOCC(=O)N3CCN(c4cc(Nc5ncc(C(=O)Nc6c(C)cccc6Cl)s5)nc(C)n4)CC3)c2)cs1)C1CCCCC1 [DAS-meIAP] | – | slightly delayed the growth | – | not |
